From patent US20220324865A1 (Bayer Aktiengesellschaft, priority 2018, published 2022)
Structures can show the parent of a compound that is named as a salt.

Molecular target: T1, human EP3 receptor (Homo sapiens, UniProt P43115)
T1 construct: expressed in transfected cells; host or cells: CHO K1 (Chinese Hamster Ovary), stably co-transfected with Galpha16 and mitochondrial clytin
T1 sequence (P43115 1-390): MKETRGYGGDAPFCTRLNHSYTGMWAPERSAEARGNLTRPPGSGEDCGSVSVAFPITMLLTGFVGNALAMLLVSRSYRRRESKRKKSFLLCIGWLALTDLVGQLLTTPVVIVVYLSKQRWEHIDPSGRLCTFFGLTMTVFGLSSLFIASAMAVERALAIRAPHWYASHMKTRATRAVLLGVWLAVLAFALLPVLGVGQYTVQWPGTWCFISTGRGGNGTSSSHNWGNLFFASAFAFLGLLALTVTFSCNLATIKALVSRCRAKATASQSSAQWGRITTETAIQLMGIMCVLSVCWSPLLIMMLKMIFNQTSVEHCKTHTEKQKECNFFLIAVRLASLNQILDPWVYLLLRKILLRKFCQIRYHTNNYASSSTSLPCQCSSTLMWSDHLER
Experiment: Cellular in vitro assay for determining EP3 receptor activity (human EP3 cell line, sulprostone-stimulated calcium luminescence)
Assay type: cell-based
Details: CHO cells expressing human EP3 and mitochondrial Clytin; antagonist mode, sulprostone at EC50; read-out: EP3 CHO mtCLY ANTAG IC50
Summary of the method: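 CHO K1 cells stably expressing human EP3 with Gα16 and mitochondrial Clytin, loaded overnight with coelenterazine. Compounds added 10 min before sulprostone at its EC50; antagonism read immediately as reduced calcium-driven luminescence, quadruplicate points.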

Row | SMILES | IC50 [nM]
1 | Cc1cc(-c2cn3nc(C(=O)NCC(C)(N)C(F)(F)F)c(C4CC4)c3c(=O)[nH]2)ccc1Cl (single isomer, unassigned) [6-321] | 1.7
2 | CC(C)(O)[C@@H](NC(=O)c1nn2cc(-c3ccc(Cl)c(OC(F)(F)F)c3)[nH]c(=O)c2c1C1CC1)c1ccc(F)cc1 [6-592] | 1.85
3 | O=C(N[C@H](CCO)c1ccc(F)cc1)c1cc2c(=O)[nH]c(-c3ccc4ccccc4n3)cn2n1 [6-12] | 3.05
4 | CC(C)C(CNC(=O)c1cc2c(=O)[nH]c(-c3ccc4ccccc4c3)cn2n1)n1cc(Cl)cn1 (stereo not shown) [Example 2-22, N-[2-(4-Chlor-1H-pyrazol-1-yl)-3-methylbutyl]-6-(2-naphthyl)-4-oxo-4,5-dihydropyrazolo[1,5-a]pyrazine-2-carboxamide] | 3.85
5 | CC(C)(C)OC(=O)N1CC(C(NC(=O)c2cc3c(=O)[nH]c(-c4ccc5ccccc5c4)cn3n2)c2ccc(F)cc2)C1 (racemic) [Example 1-157, tert-Butyl 3-[(4-fluorophenyl)-[[6-(2-naphthyl)-4-oxo-5H-pyrazolo[1,5-a]pyrazine-2-carbonyl]amino]-methyl]azetidine-1-carboxylate (Racemate)] | 2.2
6 | Cc1ccc(-c2cn3nc(C(=O)N[C@H](C)C(C)C)c(C(F)(F)F)c3c(=O)[nH]2)cc1Cl [6-189] | 1.35
7 | Cc1cccc2ncc(-c3cn4nc(C(=O)NC(C)CC5CC5)c(C(C)C)c4c(=O)[nH]3)cc12 (stereo not shown) [Example 4-18, N-(1-Cyclopropylpropan-2-yl)-3-isopropyl-6-(5-methylquinolin-3-yl)-4-oxo-4,5-dihydropyrazolo[1,5-a]pyrazine-2-carboxamide] | 1.05
8 | Cc1ccc(-c2cn3nc(C(=O)NCC(O)C(F)(F)F)c(C(F)(F)F)c3c(=O)[nH]2)cc1Cl (single isomer, unassigned) [6-159] | 2.3
9 | CN(C)C[C@@H](NC(=O)c1cc2c(=O)[nH]c(-c3ccc4ccccc4c3)cn2n1)c1ccccc1 [Example 1-38, N-[(1S)-2-(Dimethylamino)-1-phenylethyl]-6-(naphthalen-2-yl)-4-oxo-4,5-dihydropyrazolo[1,5-a]-pyrazine-2-carboxamide formic acid salt] | 4.09
10 | Cc1ccc(-c2[nH]c(=O)c3c(C4CC4)c(C(=O)N[C@H](C)c4ccc(F)cc4)nn3c2F)cc1Cl [6-663] | 3.85
11 | COc1cccc(CNC(=O)c2cc3c(=O)[nH]c(-c4ccc5ccccc5c4)cn3n2)c1 [Example 2-23, N-(3-Methoxybenzyl)-6-(2-naphthyl)-4-oxo-4,5-dihydropyrazolo[1,5-a]pyrazine-2-carboxamide] | 1.14
12 | C[C@@H](CO)NC(=O)c1nn2cc(-c3ccc(Cl)c(Cl)c3)[nH]c(=O)c2c1C1CC1 [6-414] | 5.55
13 | Cc1ccc(-c2cn3nc(C(=O)N[C@H](C)C(C)C)c(C(F)(F)F)c3c(=O)[nH]2)cc1C [6-114] | 3.15
14 | CN1CC(NC(=O)c2cc3c(=O)[nH]c(-c4ccc5c(c4)CCCC5)cn3n2)(c2ccc(F)cc2)C1 [Example 1-99, N-[3-(4-Fluorophenyl)-1-methylazetidin-3-yl]-4-oxo-6-(5,6,7,8-tetrahydronaphthalen-2-yl)-4,5-dihydropyrazolo[1,5-a]pyrazine-2-carboxamide] | 4
15 | C[C@H](NC(=O)c1nn2cc(-c3ccc(Cl)c(F)c3)[nH]c(=O)c2c1C1CC(F)(F)C1)C1CC1 [6-556] | 2.15
16 | Cc1ccc(-c2cn3nc(C(=O)NC(CCn4cncn4)c4ccccc4)cc3c(=O)[nH]2)cc1C (racemic) [Example 1-12, rac-6-(3,4-Dimethylphenyl)-4-oxo-N-[1-phenyl-3-(1,2,4-triazol-1-yl)propyl]-5H-pyrazolo[1,5-a]-pyrazine-2-carboxamide] | 1.67
17 | O=C(NC(CN1CCCC1)c1ccc(F)cc1)c1cc2c(=O)[nH]c(-c3ccc4ccccc4c3)cn2n1 (stereo not shown) [Example 1-44, N-[1-(4-Fluorophenyl)-2-(pyrrolidin-1-yl)ethyl]-6-(2-naphthyl)-4-oxo-5H-pyrazolo[1,5-a]pyrazine-2-carboxamide] | 8.97
18 | Cc1c(C(=O)NC2(c3ccccc3)CCOCC2)nn2c(C)c(-c3ccc4ccccc4c3)[nH]c(=O)c12 [Example 3-34, 3,7-Dimethyl-6-(2-naphthyl)-4-oxo-N-(4-phenyltetrahydro-2H-pyran-4-yl)-4,5-dihydropyrazolo[1,5-a]pyrazine-2-carboxamide] | 6.05
19 | Cc1ccc(-c2cn3nc(C(=O)N[C@@H](c4ccc(F)cc4)C(F)(F)CO)c(C(F)(F)C(F)(F)F)c3c(=O)[nH]2)cc1C [6-489] | 0.41

Row | SMILES | IC50 [nM]
20 | Cc1c(C(=O)NCc2cc[nH]n2)nn2c(C)c(-c3ccc4ccccc4c3)[nH]c(=O)c12 [Example 3-5, 3,7-Dimethyl-6-(naphthalen-2-yl)-4-oxo-N-[(1H-pyrazol-3-yl)methyl]-4,5-dihydropyrazolo[1,5-a]pyrazine-2-carboxamide] | 7
21 | Cc1cc(-c2cn3nc(C(=O)N[C@@H](c4ccc(F)cc4)C(F)(F)CO)c(C(F)(F)F)c3c(=O)[nH]2)ccc1F [6-647] | 3.03
22 | Cc1cc(-c2cn3nc(C(=O)NC(c4ccc(F)cc4)C4(O)CC4)c(C(F)(F)F)c3c(=O)[nH]2)ccc1Cl (racemic) [6-210] | 1.45
23 | CCN1CCC(NC(=O)c2nn3cc(-c4ccc(C)c(F)c4)[nH]c(=O)c3c2C2CC2)(C(F)(F)F)C1 (single isomer, unassigned) [6-405] | 4.7
24 | O=C(NC(c1ccccc1)C(F)F)c1cc2c(=O)[nH]c(-c3ccc4ccccc4c3)cn2n1 (stereo not shown) [Example 2-4, N-(2,2-Difluoro-1-phenylethyl)-6-(2-naphthyl)-4-oxo-4,5-dihydropyrazolo[1,5-a]pyrazine-2-carboxamide] | 1.07
25 | CC(NC(=O)c1cc2c(=O)[nH]c(-c3ccc4ccccc4c3)cn2n1)c1cnc(OCC(F)(F)F)cn1 (stereo not shown) [6-7] | 7
26 | C[C@@H](NC(=O)c1cc2c(=O)[nH]c(-c3ccc4ccccc4c3)cn2n1)c1ccc2ccccc2c1 [Example 2-41, 6-(2-Naphthyl)-N-[(7R)-1-(2-naphthyl)ethyl]-4-oxo-4,5-dihydropyrazolo[1,5-a]pyrazine-2-carboxamide] | 2.15
27 | Cc1[nH]c2ccc(CNC(=O)c3nn4cc(-c5cnc6cccc(C)c6c5)[nH]c(=O)c4c3C(C)C)cc2c1C [Example 4-10, N-[(2,3-Dimethyl-1H-indol-5-yl)methyl]-6-(5-methylquinolin-3-yl)-4-oxo-3-(propan-2-yl)-4,5-dihydropyrazolo[1,5-a]pyrazine-2-carboxamide] | 2
28 | O=C(N[C@H](CCO)c1ccc(F)cc1)c1cc2c(=O)[nH]c(-c3ccc4c(c3)COCC4)cn2n1 [Example 1-24, 6-(3,4-Dihydro-1H-isochromen-7-yl)-N-[(1R)-1-(4-fluorophenyl)-3-hydroxypropyl]-4-oxo-4,5-dihydropyrazolo[1,5-a]pyrazine-2-carboxamide] | 7.3
29 | CC(NC(=O)c1cc2c(=O)[nH]c(-c3ccc4ccccc4c3)cn2n1)c1ccc(O)cc1 (single isomer, unassigned) [6-542] | 10.5
30 | Cc1cccc2ncc(-c3cn4nc(C(=O)NCc5cccc(CN(C)C)c5)c(C(C)C)c4c(=O)[nH]3)cc12 [Example 4-2, N-({3-[(Dimethylamino)methyl]phenyl}methyl)-6-(5-methylquinolin-3-yl)-4-oxo-3-(propan-2-yl)-4,5-dihydropyrazolo[1,5-a]pyrazine-2-carboxamide] | 2.8
31 | Cc1c(C(=O)N[C@H](C)c2ccc(F)cc2)nn2c(C)c(-c3ccc4ccccc4c3)[nH]c(=O)c12 [Example 1-23, N-[(1R)-1-(4-Fluorophenyl)ethyl]-3,7-dimethyl-6-(naphthalen-2-yl)-4-oxo-4,5-dihydropyrazolo-[1,5-a]pyrazine-2-carboxamide] | 5.55
32 | Cc1cccc2ncc(-c3cn4nc(C(=O)N[C@@H](C)c5ccccc5)c(C(C)C)c4c(=O)[nH]3)cc12 [Example 4-59, 6-(5-Methylquinolin-3-yl)-4-oxo-N-[(7S)-1-phenylethyl]-3-(propan-2-yl)-4,5-dihydropyrazolo[1,5-a]pyrazine-2-carboxamide] | 0.675
33 | Cc1ccc(-c2cn3nc(C(=O)N[C@@H](c4ccc(F)cc4)C(C)(C)O)c(C)c3c(=O)[nH]2)c(F)c1F [Example 1-163, 6-(2,3-Difluoro-4-methylphenyl)-N-[(1S)-1-(4-fluorophenyl)-2-hydroxy-2-methylpropyl]-3-methyl-4-oxo-4,5-dihydropyrazolo[1,5-a]pyrazine-2-carboxamide] | 7.8
34 | O=C(NCc1ccccc1)c1cc2c(=O)[nH]c(-c3ccc4ccccc4c3)cn2n1 [6-16] | 4.16
35 | Cc1ccc([C@H](C)NC(=O)c2nn3cc(-c4cnc5cccc(C)c5c4)[nH]c(=O)c3c2C(C)C)cc1 [Example 4-56, N-[(7S)-1-(4-Methylphenyl)ethyl]-6-(5-methylquinolin-3-yl)-4-oxo-3-(propan-2-yl)-4,5-dihydropyrazolo[1,5-a]pyrazine-2-carboxamide] | 4
36 | C[C@@H](NC(=O)c1cc2c(=O)[nH]c(-c3ccc4ccccc4c3)cn2n1)c1cccc2ccccc12 [Example 2-27, 6-(2-Naphthyl)-N-[(7R)-1-(1-naphthyl)ethyl]-4-oxo-4,5-dihydropyrazolo[1,5-a]pyrazine-2-carboxamide] | 3.25
37 | CC(NC(=O)c1cc2c(=O)[nH]c(-c3ccc4cccnc4c3)cn2n1)c1ccc(F)cc1 (stereo not shown) [6-27] | 2.63
